Reference: PMC12546632, “The role of cytochrome bc1 inhibitors in future tuberculosis treatment regimens” (Nature Communications, 2025)
In brackets after ≈: the same amount, converted by molar mass. Several values for one entry are separate records, joined by “and”; a condition that tells them apart may be missing. Equal entries are not always repeated. Where two headings read alike, the source gives them in different places.

Experiments:
1A2 = biological target: T1, 1A2 (Homo sapiens, UniProt P05177); format: in vitro ADME
T1 construct: from tissue; host or cells: human liver microsomes
T1 sequence (P05177 whole entry): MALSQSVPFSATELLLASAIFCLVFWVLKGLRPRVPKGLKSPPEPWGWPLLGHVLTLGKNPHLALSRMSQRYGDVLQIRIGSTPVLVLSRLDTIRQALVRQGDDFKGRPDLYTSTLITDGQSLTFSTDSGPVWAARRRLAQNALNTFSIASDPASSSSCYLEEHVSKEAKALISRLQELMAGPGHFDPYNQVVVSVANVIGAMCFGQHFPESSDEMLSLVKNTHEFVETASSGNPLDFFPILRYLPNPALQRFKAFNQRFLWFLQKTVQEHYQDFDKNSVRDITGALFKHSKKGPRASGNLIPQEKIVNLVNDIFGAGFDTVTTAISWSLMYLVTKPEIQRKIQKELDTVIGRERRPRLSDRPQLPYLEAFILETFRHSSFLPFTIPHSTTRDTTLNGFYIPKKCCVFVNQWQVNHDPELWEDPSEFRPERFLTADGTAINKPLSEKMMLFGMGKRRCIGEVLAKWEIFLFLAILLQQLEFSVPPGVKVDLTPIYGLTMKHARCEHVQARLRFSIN

H37Rv_CydBd-KO = experiment: microbe, parasite or virus in culture; format: cell-based, Mycobacterium tuberculosis
H37Rv_CytBd-KO = experiment: microbe, parasite or virus in culture; format: cell-based, Mycobacterium tuberculosis; details: read-out: MBC99.9 (H37Rv_CytBd-KO)
2D6 = biological target: T2, 2D6 (Homo sapiens, UniProt P10635); format: in vitro ADME
T2 construct: from tissue; host or cells: human liver microsomes
T2 sequence (P10635 whole entry): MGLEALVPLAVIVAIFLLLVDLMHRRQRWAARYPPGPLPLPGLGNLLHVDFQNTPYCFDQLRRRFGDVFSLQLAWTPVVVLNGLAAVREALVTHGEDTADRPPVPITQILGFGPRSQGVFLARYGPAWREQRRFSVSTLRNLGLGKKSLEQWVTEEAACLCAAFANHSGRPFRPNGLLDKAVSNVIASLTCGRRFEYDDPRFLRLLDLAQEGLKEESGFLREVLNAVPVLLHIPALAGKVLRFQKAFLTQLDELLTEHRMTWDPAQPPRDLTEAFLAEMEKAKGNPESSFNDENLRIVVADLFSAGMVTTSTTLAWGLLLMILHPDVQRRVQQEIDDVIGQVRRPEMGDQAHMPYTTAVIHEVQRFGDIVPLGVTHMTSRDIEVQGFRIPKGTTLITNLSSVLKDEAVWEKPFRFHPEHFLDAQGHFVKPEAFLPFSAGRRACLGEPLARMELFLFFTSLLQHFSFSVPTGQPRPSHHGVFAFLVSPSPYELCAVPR

2C8 = biological target: T3, 2C8 (Homo sapiens, UniProt P10632); format: in vitro ADME
T3 construct: from tissue; host or cells: human liver microsomes
T3 sequence (P10632 whole entry): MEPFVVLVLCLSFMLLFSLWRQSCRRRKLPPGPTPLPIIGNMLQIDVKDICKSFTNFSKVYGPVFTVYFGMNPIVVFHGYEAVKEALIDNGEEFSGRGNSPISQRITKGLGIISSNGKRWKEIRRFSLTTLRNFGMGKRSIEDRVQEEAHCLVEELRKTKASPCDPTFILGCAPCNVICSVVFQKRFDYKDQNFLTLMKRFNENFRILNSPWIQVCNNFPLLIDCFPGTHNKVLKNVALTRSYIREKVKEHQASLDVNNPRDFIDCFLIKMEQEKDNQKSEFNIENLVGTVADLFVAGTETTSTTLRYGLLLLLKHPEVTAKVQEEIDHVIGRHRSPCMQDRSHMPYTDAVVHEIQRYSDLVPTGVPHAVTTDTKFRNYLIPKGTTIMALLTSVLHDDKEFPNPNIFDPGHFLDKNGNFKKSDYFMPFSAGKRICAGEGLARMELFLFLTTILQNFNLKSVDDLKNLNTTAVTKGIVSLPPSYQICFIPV

3A4 = biological target: T4, 3A4 (Homo sapiens, UniProt P08684); format: in vitro ADME
T4 construct: from tissue; host or cells: human liver microsomes
T4 sequence (P08684 whole entry): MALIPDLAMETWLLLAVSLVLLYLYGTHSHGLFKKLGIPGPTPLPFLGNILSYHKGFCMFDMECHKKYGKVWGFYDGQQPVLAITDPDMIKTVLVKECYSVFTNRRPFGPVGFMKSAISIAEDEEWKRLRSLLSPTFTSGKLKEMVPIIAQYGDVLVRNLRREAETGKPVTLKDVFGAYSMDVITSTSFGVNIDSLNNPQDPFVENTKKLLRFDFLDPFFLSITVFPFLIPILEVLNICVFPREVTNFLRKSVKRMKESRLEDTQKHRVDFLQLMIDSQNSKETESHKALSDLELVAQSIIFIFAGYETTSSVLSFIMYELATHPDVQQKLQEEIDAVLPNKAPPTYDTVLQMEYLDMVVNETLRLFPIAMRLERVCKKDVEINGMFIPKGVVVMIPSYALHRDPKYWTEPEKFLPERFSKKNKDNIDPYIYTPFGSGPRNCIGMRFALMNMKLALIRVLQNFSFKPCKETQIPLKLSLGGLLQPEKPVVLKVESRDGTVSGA

[1] = tested on: M. tuberculosis ΔcydAB (Parent); experiment: microbe, parasite or virus in culture; format: cell-based
[2] = format: in vitro ADME; details: hepatocytes
[3] = mouse, in vivo, iv, 1 mg/kg
2C19 = biological target: T5, 2C19 (Homo sapiens, UniProt P33261); format: in vitro ADME
T5 construct: from tissue; host or cells: human liver microsomes
T5 sequence (P33261 whole entry): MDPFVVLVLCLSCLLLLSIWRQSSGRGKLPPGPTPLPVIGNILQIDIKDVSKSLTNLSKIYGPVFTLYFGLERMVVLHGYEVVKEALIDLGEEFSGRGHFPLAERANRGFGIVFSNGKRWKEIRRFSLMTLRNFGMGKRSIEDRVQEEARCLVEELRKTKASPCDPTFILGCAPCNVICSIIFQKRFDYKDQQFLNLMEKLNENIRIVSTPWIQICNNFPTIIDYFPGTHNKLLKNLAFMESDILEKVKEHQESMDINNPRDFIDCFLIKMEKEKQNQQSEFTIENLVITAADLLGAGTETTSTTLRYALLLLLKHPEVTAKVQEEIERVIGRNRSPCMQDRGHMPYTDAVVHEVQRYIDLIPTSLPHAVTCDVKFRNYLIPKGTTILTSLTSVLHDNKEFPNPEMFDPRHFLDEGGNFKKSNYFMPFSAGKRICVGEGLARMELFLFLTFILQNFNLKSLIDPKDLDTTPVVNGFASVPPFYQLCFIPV

M. tuberculosis H37Rv [4] = experiment: MBC99.9 determination, H37Rv; format: cell-based, Mycobacterium tuberculosis
[5] = format: in vitro ADME
Protocol: (§1) Details of the metabolic stability in liver microsomes and hepatocytes together with CYP inhibition in human liver microsomes and plasma protein binding have been published previously. The CYP induction assay was conducted by Puracyp Inc (www.puracyp.com). Studies were designed to evaluate the effect of compounds on the activation of human PXR (hPXR). The DPX2TM cells harbour the human PXR gene (NR1I2) and a luciferase reporter gene linked to two promoters identified in the human CYP3A4 gene, namely XREM and PXRE. These cells were seeded in a 96-well plate. Twenty-four hours after seeding, the cells were treated with various concentrations of compounds then incubated for an additional 24 h. Following this, the number of viable cells per well were determined using Promega’s CellTiter Fluor Cytotoxicity Assay. Briefly, One-Glo was added to the same wells and reporter gene activity was assessed. The luminescence light intensity was directly proportional to the extent of PXR activation and accompanying gene transcription in the DPX2TM cells.

human PXR (hPXR) = human PXR (hPXR) (Homo sapiens, UniProt O75469); format: in vitro ADME
Chain of human PXR (hPXR) (O75469 whole entry): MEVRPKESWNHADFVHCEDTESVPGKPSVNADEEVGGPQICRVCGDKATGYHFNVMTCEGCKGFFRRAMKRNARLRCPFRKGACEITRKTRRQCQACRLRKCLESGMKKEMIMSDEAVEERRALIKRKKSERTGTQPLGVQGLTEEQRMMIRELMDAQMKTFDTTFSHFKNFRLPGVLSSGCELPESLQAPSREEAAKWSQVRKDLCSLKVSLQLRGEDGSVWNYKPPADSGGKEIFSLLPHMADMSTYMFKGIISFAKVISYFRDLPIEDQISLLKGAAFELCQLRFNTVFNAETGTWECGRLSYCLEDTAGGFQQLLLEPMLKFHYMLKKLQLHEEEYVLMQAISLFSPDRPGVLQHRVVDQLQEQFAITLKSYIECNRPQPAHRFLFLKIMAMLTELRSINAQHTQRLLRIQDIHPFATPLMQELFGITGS
Protocol: as §1

M. tuberculosis H37Rv [6] = experiment: MIC90 determination, H37Rv; format: cell-based, Mycobacterium tuberculosis
[7] = tested on: M. tuberculosis clinical isolates; experiment: microbe, parasite or virus in culture; format: cell-based, Mycobacterium tuberculosis
N1283 clinical isolate = format: cell-based, Mycobacterium tuberculosis; details: biological replicates
WT H37Rv = format: cell-based, Mycobacterium tuberculosis; details: biological replicates
[8] = tested on: Salmonella typhimurium strains TA98 and TAMix
clinical isolate, N1283 = tested on: clinical isolate, N1283; design: species or system Mycobacterium tuberculosis; details: in vivo
2C9 = biological target: T6, 2C9 (Homo sapiens, UniProt P11712); format: in vitro ADME
T6 construct: from tissue; host or cells: human liver microsomes
T6 sequence (P11712 whole entry): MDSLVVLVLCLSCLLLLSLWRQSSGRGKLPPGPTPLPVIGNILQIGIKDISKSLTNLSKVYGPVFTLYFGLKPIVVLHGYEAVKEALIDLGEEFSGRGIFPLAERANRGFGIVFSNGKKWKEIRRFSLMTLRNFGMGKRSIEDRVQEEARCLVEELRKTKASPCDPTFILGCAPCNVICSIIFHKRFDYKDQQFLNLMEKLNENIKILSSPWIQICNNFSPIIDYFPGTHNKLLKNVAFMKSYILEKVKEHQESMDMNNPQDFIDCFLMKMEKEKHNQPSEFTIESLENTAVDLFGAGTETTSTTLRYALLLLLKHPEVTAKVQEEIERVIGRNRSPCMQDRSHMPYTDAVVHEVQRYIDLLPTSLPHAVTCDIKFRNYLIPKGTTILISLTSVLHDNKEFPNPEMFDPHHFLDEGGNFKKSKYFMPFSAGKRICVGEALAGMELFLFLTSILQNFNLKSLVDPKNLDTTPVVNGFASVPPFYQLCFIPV

[9] = tested on: M. tuberculosis reference strain H37Rv; experiment: Survival under monotherapy in intravenous model (related to Study C); format: in vivo, Mycobacterium tuberculosis

In the case of `CCc1nc2ncc(C)cn2c1C(=O)NCc1ccc(N2CCN(S(=O)(=O)C(F)(F)F)C=N2)c(F)c1` [JNJ-4052], the IC50 (1A2) is reported as greater than 20 µM, the MIC90 (H37Rv_CydBd-KO) is reported as 7 nM (≈ 3.69 ng/mL) and the MBC (H37Rv_CytBd-KO) is reported as 300 nM (≈ 158 ng/mL). For the same compound, the IC50 (2D6) was greater than 20 µM, the IC50 (2C8) was greater than 20 µM and the IC50 (3A4) was greater than 20 µM. The MIC50 ([1]; Parent (ΔcydAB)) was 10 nM (≈ 5.28 ng/mL), the “Mouse Hep Clint” value [2] was 12 µL min-1 106 cells-1 and the “CLp as % LBF” value [3] was ~ 11 % LBF. For the same compound, the IC50 (2C19) was greater than 20 µM, the MBC (M. tuberculosis H37Rv [4]) was greater than 1250 nM and the “Plasma protein binding, Rat (% free)” value [5] was 2.67 % free. For the same compound, the “Dog Hep Clint” value ([5]; hepatocytes) was 4.7 µL min-1 106 cells-1, the “Human Hep Clint” value ([5]; hepatocytes) was 6.7 µL min-1 106 cells-1 and the “Rat Hep Clint” value ([5]; hepatocytes) was 19 µL min-1 106 cells-1. The “Dog LM Clint” value ([5]; microsomes) was less than 7.7 µL min-1 mg protein-1, the “Human LM Clint” value ([5]; microsomes) was 20.4 µL min-1 mg protein-1 and the “Mouse LM Clint” value ([5]; microsomes) was 42 µL min-1 mg protein-1. For the same compound, the “Rat LM Clint” value ([5]; microsomes) was 16.7 µL min-1 mg protein-1, the “Cyp3A4 ind. (%ctrl)” value (human PXR (hPXR); 1 µM) was 3.0 %ctrl and the “Cyp3A4 ind. (%ctrl)” value (human PXR (hPXR); 10 µM) was 21.2 %ctrl. It also gave an MIC90 (M. tuberculosis H37Rv [6]; read-out: MIC90 (H37Rv)) of 7 nM (≈ 3.69 ng/mL), an MIC90 (M. tuberculosis H37Rv [6]; strain H37Rv (Institut Pasteur, lineage 4), read-out: MIC90) of 6 nM (≈ 3.17 ng/mL) and an MIC90 ([7]; strain Mtb-0617 (Karonga, lineage 3)) of 1.3 nM (≈ 0.686 ng/mL). For the same compound, the MIC90 ([7]; strain Mtb-2703 (Karonga, lineage 3)) was 0.13 nM (≈ 0.0686 ng/mL), the MIC90 ([7]; strain Mtb-4779 (Karonga, lineage 2)) was 0.29 nM (≈ 0.153 ng/mL) and the MIC90 ([7]; strain Mtb-4980 (Karonga, lineage 4)) was 0.7 nM (≈ 0.369 ng/mL). For the same compound, the MIC90 ([7]; strain Mtb-6787 (Karonga, lineage 4)) was 0.71 nM (≈ 0.375 ng/mL), the MIC90 ([7]; strain Mtb-7489 (Karonga, lineage 1)) was 2.5 nM (≈ 1.32 ng/mL) and the MIC90 ([7]; strain Mtb-7496 (Karonga, lineage 3)) was 0.29 nM (≈ 0.153 ng/mL). For the same compound, the MIC90 ([7]; strain Mtb-9271 (Karonga, lineage 4)) was 0.2 nM (≈ 0.106 ng/mL), the MIC90 ([7]; strain Mtb-61164 (Karonga, lineage 2)) was 0.79 nM (≈ 0.417 ng/mL) and the MIC90 ([7]; strain N0054 (Gagneux, lineage 3)) was 0.85 nM (≈ 0.448 ng/mL). For the same compound, the MIC90 ([7]; strain N0072 (Gagneux, lineage 1)) was 1.2 nM (≈ 0.633 ng/mL), the MIC90 ([7]; strain N1283 (Gagneux, lineage 4)) was 0.73 nM (≈ 0.385 ng/mL) and the CFU counts (N1283 clinical isolate; Conc 8 nM) was 2200000 CFU and 6000000 CFU and 800000 CFU and 200000 CFU. The CFU counts (N1283 clinical isolate; Conc 32 nM) was 150000 CFU and 400000 CFU and 80000 CFU and 50000 CFU, the CFU counts (N1283 clinical isolate; Conc 128 nM) was 170000 CFU and 300000 CFU and 90000 CFU and 80000 CFU and the CFU counts (WT H37Rv; Conc 8 nM) was 50000000 CFU and 20000000 CFU and 53000000 CFU and 30000000 CFU. The CFU counts (WT H37Rv; Conc 32 nM) was 17000000 CFU and 12000000 CFU, the CFU counts (WT H37Rv; Conc 128 nM) was 26000000 CFU and 17000000 CFU and the “Mutagenicity (AMES II)” value [8] was “negative”. For the same compound, the CFU reduction (clinical isolate, N1283) was 1.6 log10, the IC20 (HepG2 cells) was 98.8 µM and the IC50 (2C9) was greater than 20 µM.
With `COc1c(N2C[C@@H]3CCCN[C@@H]3C2)c(F)cc2c(=O)c(C(=O)O)cn(C3CC3)c12` [Moxifloxacin, moxifloxacin, reference compound] the “Survival of mice under monotherapy” value ([9]; in vivo, iv) was 100% and the “Day of death, individual mice” value ([9]; intravenous model, monotherapy, read with the 1/0 flag of the same line (96 with flag 0)) was 96.
`CO[C@H]1/C=C/O[C@@]2(C)Oc3c(C)c(O)c4c(O)c(c(/C=N/N5CCN(C)CC5)c(O)c4c3C2=O)NC(=O)/C(C)=C\C=C\[C@H](C)[C@H](O)[C@@H](C)[C@@H](O)[C@@H](C)[C@H](OC(C)=O)[C@@H]1C` [Rifampicin, rifampicin] gave an MIC50 ([1]; Mycobacterium tuberculosis) of 100 nM (≈ 82.3 ng/mL).
